Source: paper PMC7873226, “Molecular mechanism and structural basis of small-molecule modulation of the gating of acid-sensing ion channel 1” (Communications Biology, 2021)

Biological target: T1, rat ASIC1a (Rattus norvegicus, UniProt P55926)
T1 construct: expressed in transfected cells
T1 sequence (P55926 1-526): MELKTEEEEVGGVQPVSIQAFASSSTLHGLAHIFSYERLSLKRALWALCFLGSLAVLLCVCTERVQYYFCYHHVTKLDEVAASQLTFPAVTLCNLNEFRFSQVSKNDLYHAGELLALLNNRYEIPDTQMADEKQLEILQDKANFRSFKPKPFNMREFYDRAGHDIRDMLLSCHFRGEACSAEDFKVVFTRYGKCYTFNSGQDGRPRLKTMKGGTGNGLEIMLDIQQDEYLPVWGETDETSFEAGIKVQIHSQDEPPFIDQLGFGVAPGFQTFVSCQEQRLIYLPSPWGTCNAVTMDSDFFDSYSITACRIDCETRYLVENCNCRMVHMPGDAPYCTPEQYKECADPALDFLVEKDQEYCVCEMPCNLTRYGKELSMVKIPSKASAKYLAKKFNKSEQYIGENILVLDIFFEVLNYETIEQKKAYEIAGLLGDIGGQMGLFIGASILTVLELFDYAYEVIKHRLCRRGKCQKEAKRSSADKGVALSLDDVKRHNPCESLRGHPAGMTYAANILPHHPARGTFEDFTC
Assay: Kinetics of onset of and recovery (wash) from compound inhibition
Assay type: cell-based
Settings: for pH 6.8-induced current, % pH8.2 control: holding pH 8.2, one cell; for max - % pH7.4 or 8.2 Control (Y): maximal wash current / ss - % pH7.4 or 8.2 Control (Y): steady-state wash current: after 100 nM; for pH 6.8-induced current, % pH7.4 control: holding pH 7.4, one cell
Description: Chinese Hamster Ovary (CHO) cells stably expressing rat ASIC1a were cultured in Ham’s F12, supplemented with 10% FBS, 1% penicillin–streptomycin and 500 µg/mL G418 and incubated at 37 °C with 5% CO2. Transient transfections of rASIC1a and cASIC1 wild-type or mutant channels in CHO cells were performed with Lipofectamine 3000 (Thermo Fisher Scientific) according to the manufacturer’s recommendations. The green fluorescent protein (GFP) cDNA (at 1/10 the amount of channel cDNA) was co-transfected with channel cDNA to aid the identification of transfected cells under the microscope in patch clamp experiments. All cDNAs were sequence verified.
Cells were freshly dissociated with CellStripper (Corning) and dispersed in a chamber on the stage of an inverted microscope. Upon formation of the whole-cell conformation, the cell was lifted from the bottom of the chamber and placed at the tip of a tubing perfusing an extracellular solution containing (in mM): 149 NaCl, 2 CaCl2, 4 KCl, 1 MgCl2, 5 glucose, 10 HEPES, pH 7.4, 310 mOsm/L. Extracellular solutions at more basic or acidic pHs were made by titrating the above pH 7.4 solution with NaOH or HCl (5 mM MES was added to solutions at pH 6.0 and lower). Pipette electrodes were filled with an intracellular solution containing (in mM): 135 KCl, 4 MgATP, 0.3 Na2GTP, 10 EGTA, and 20 HEPES, pH 7.2, 290 mOsm/L.
All recordings were performed at room temperature using an Axopatch 200B amplifier and pClamp 11 software (Molecular Devices). Currents were measured by whole-cell patch clamp, digitized at 10 kHz and lowpass filtered at 2 kHz. Series resistance was 75% compensated. Responses were elicited by rapid perfusion of acidic solutions using the SF-77B Fast-Step Perfusion device (Warner Instruments) for 40 ms once every 30 s (unless indicated otherwise) and recorded till steady state was reached. The holding potential was 0 mV unless indicated otherwise.
Baseline values (i.e., current amplitudes at the conditioning pH) were subtracted to obtain responses evoked by the test pH. Responses were normalized for each cell before averaging (see figure legends for more detail on normalization for each type of experiment). Concentration–response data were fitted to a logistic function of the form: R = (A1–A2)/(1 + (C/C0)^h)+A2, where R is the normalized response, C is either pH or compound concentration, C0 is the pH/concentration at which half-maximal response occurs (pH50 or IC50), h is the Hill coefficient, and A1 and A2 are constants. Kinetic parameters were obtained by fitting the data with either a single or double exponential function. Fitted data are shown as solid, dashed, or dotted curves.

[1] = holding pH 7.4 (source data Fig. 2d)
[2] = holding pH 8.2 (source data Fig. 2d)

pH 6.8-induced current, % pH8.2 control (100 nM, t = -20 s): 4.9%
pH 6.8-induced current, % pH8.2 control (100 nM, t = -30 s): 4.9%
pH 6.8-induced current, % pH8.2 control (100 nM, t = -40 s): 5.7%
pH 6.8-induced current, % pH8.2 control (100 nM, t = -50 s (wash starts at t = 0 s)): 47.2%
time constant of current inhibition (100 nM, holding pH 8.2, pH 6.0 test pulses): 3.6 ± 0.2 s
time constant of wash from inhibition (100 nM, wash at pH 7.8, pH 6.0-evoked currents): 12.6 ± 0.6 s
time constant of wash from inhibition (100 nM, wash at pH 8.2, pH 6.0-evoked currents): 12.7 ± 1.3 s
max - % pH7.4 or 8.2 Control (Y): maximal wash current [1]: 154.4%
ss - % pH7.4 or 8.2 Control (Y): steady-state wash current [1]: 95.3%
max - % pH7.4 or 8.2 Control (Y): maximal wash current [2]: 96.9%
ss - % pH7.4 or 8.2 Control (Y): steady-state wash current [2]: 96.8%
pH 6.8-induced current, % pH7.4 control (wash after 100 nM, t = 10 s): 36.5%
pH 6.8-induced current, % pH7.4 control (wash after 100 nM, t = 20 s): 90.8%
pH 6.8-induced current, % pH7.4 control (wash after 100 nM, t = 30 s): 132.5%
pH 6.8-induced current, % pH7.4 control (wash after 100 nM, t = 40 s): 161.6%
pH 6.8-induced current, % pH7.4 control (wash after 100 nM, t = 50 s): 157.3%
pH 6.8-induced current, % pH7.4 control (wash after 100 nM, t = 60 s): 153.5%
pH 6.8-induced current, % pH7.4 control (wash after 100 nM, t = 70 s): 157.1%
pH 6.8-induced current, % pH7.4 control (wash after 100 nM, t = 80 s): 151.7%
pH 6.8-induced current, % pH7.4 control (wash after 100 nM, t = 90 s): 149.4%
pH 6.8-induced current, % pH7.4 control (wash after 100 nM, t = 100 s): 151.7%
pH 6.8-induced current, % pH7.4 control (wash after 100 nM, t = 110 s): 141.4%
pH 6.8-induced current, % pH7.4 control (wash after 100 nM, t = 120 s): 127.3%
pH 6.8-induced current, % pH7.4 control (wash after 100 nM, t = 130 s): 116.2%
pH 6.8-induced current, % pH7.4 control (wash after 100 nM, t = 140 s): 120.1%
pH 6.8-induced current, % pH7.4 control (wash after 100 nM, t = 150 s): 108.5%
pH 6.8-induced current, % pH7.4 control (wash after 100 nM, t = 160 s): 117.3%
pH 6.8-induced current, % pH7.4 control (wash after 100 nM, t = 170 s): 108.8%
pH 6.8-induced current, % pH7.4 control (wash after 100 nM, t = 180 s): 100.4%
pH 6.8-induced current, % pH7.4 control (wash after 100 nM, t = 190 s): 95.1%
pH 6.8-induced current, % pH7.4 control (wash after 100 nM, t = 200 s): 97.0%
pH 6.8-induced current, % pH7.4 control (wash after 100 nM, t = 210 s): 100.5%
pH 6.8-induced current, % pH7.4 control (wash after 100 nM, t = 220 s): 101.0%
pH 6.8-induced current, % pH8.2 control (wash after 100 nM, t = 10 s): 18.2%
pH 6.8-induced current, % pH8.2 control (wash after 100 nM, t = 20 s): 43.8%
pH 6.8-induced current, % pH8.2 control (wash after 100 nM, t = 30 s): 63.8%
pH 6.8-induced current, % pH8.2 control (wash after 100 nM, t = 40 s): 78.5%
pH 6.8-induced current, % pH8.2 control (wash after 100 nM, t = 50 s): 78.9%
pH 6.8-induced current, % pH8.2 control (wash after 100 nM, t = 60 s): 93.2%
pH 6.8-induced current, % pH8.2 control (wash after 100 nM, t = 70 s): 87.4%
pH 6.8-induced current, % pH8.2 control (wash after 100 nM, t = 80 s): 90.7%
pH 6.8-induced current, % pH8.2 control (wash after 100 nM, t = 90 s): 90.7%
pH 6.8-induced current, % pH8.2 control (wash after 100 nM, t = 100 s): 91.5%
pH 6.8-induced current, % pH8.2 control (wash after 100 nM, t = 110 s): 90.6%
pH 6.8-induced current, % pH8.2 control (wash after 100 nM, t = 120 s): 89.7%
pH 6.8-induced current, % pH8.2 control (wash after 100 nM, t = 130 s): 92.5%
pH 6.8-induced current, % pH8.2 control (wash after 100 nM, t = 140 s): 93.0%
pH 6.8-induced current, % pH8.2 control (wash after 100 nM, t = 150 s): 92.2%
pH 6.8-induced current, % pH8.2 control (wash after 100 nM, t = 160 s): 93.0%
Structure (SMILES): Cc1cc(N2CC(Oc3cc(F)c4c(N)n[nH]c4c3)C2)c(F)cn1 [JNJ-67869386]
